{
  "source": "patent US10201528B2",
  "about": "“Method of treating multiple sclerosis” (Assistance Publique Hopitaux De Paris, priority 2012, dated 2019)",
  "key": {"[1]": {"tested_on": "patients with a progressive form of multiple sclerosis", "experiment": "Clinical cases: patients with progressive multiple sclerosis treated with biotin", "assay_type": "in vivo, human", "procedure": "Three patients with a progressive form of multiple sclerosis received biotin. […]\nA person, without any particular personal history. […] Treatment with interferon Ib (betaferon) began in February 2008.\nThree Solumedrol infusions were carried out in September 2010 and then 4 infusions between 8 and 11 Aug.\nTreatment with biotin was then introduced on 6 Mar. 2012 at the dose of 100 mg/day until March 30 and then 200 mg/day from April 6 to 6 May 2012 then 300 mg/day from 6 May 2012 to 7 Jun. 2012. Two complete ophthalmological examinations were carried out during this period of time: a first on 30 Mar. […]"}, "multiple sclerosis": {"tested_on": "multiple sclerosis", "details": "attacks less numerous and less severe, improvement of lesions visible by MRI; cited from earlier work"}, "[2]": {"details": "patient 1, after six months of treatment"}, "[3]": {"details": "patient 1, biotin 100 mg three times a day, three months"}},
  "note": "“Also recorded” adds a separate entry of the source.",
  "data": [
    {"compound": "C[C@H]1C[C@@H]2[C@H]([C@@H](O)C[C@@]3(C)[C@H]2CC[C@]3(O)C(=O)COC(=O)CCC(=O)O)[C@@]2(C)C=CC(=O)C=C12", "note": "[Solumedrol]", "values": [
      {"measurement": "diplopia-type attack", "setting": "[1]; patient 2, July 2008, infusions", "result": "regressive"},
      {"measurement": "progressive decrease in visual acuity", "setting": "[1]; patient 2, three infusions September 2010 and 4 infusions 8-11 Aug. 2011, before biotin", "result": "without any effect"},
      {"measurement": "evolvement of left homonymous lateral hemianopsia", "setting": "[1]; patient 3, 2004, after 3 infusions, symptomology subsequently reappeared", "result": "initially been favourable"}
    ]},
    {"compound": "glatiramer acetate", "values": [
      {"measurement": "efficacy in multiple sclerosis", "setting": "multiple sclerosis", "result": "proven to be effective"}
    ]},
    {"compound": "O=C(O)CCCC[C@@H]1SC[C@@H]2NC(=O)N[C@@H]21", "note": "[biotin]", "values": [
      {"measurement": "brain MRI spectro: choline peak and choline/creatine ratio", "setting": "[1]; [2]", "result": "clear decrease"},
      {"measurement": "visual evoked potentials: P100 wave on the right", "setting": "[1]; [2]", "result": "beginnings of a P100 wave on the right"},
      {"measurement": "visual evoked potentials: latency of left P100 wave", "setting": "[1]; patient 1, biotin 100 mg three times a day, after six months of treatment", "result": 111.8, "unit": "ms"},
      {"measurement": "MRI and brain MRI spectro", "setting": "[1]; [3]", "result": "unchanged"},
      {"measurement": "balance", "setting": "[1]; [3]", "result": "more assured"},
      {"measurement": "visual evoked potentials: P100 wave on the left", "setting": "[1]; [3]", "result": "reappearance of a P100 wave on the left"},
      {"measurement": "visual evoked potentials: P100 wave on the right", "setting": "[1]; [3]", "result": "no response was noted on the right"},
      {"measurement": "visual evoked potentials: latency of left P100 wave", "setting": "[1]; [3]", "result": 126.5, "unit": "ms"},
      {"measurement": "visual acuity on the left", "setting": "[1]; patient 1, biotin 100 mg three times a day, three months later (before treatment 2/10 on the left)", "result": "2/10"},
      {"measurement": "visual acuity on the right", "setting": "[1]; patient 1, biotin 100 mg three times a day, three months later (before treatment could only count fingers on the right)", "result": "5/10"},
      {"measurement": "visual evoked potentials: P100 wave", "setting": "[1]; patient 1, biotin increased to 600 mg/day, after nine months of treatment", "result": "bilateral P100 wave was noted"},
      {"measurement": "motor problems", "setting": "[1]; patient 1, discussion", "result": "corrected and were stabilized"},
      {"measurement": "balance between beginning of treatment and last visit", "setting": "[1]; patient 1, long-term treatment", "result": "also remained stable"},
      {"measurement": "visual acuity between beginning of treatment and last visit", "setting": "[1]; patient 1, long-term, 300 mg/day for 15 months then 100 mg/day for 9 months", "result": "remained stable"},
      {"measurement": "visual acuity compared with examination before treatment", "setting": "[1]; patient 2, biotin 100 mg/day from 6 Mar. 2012, examination 30 Mar. 2012", "result": "no improvement"},
      {"measurement": "visual field (automated campimetry): homonymous lateral hemianopsia", "setting": "[1]; patient 3, biotin 100 mg/day begun 12 Apr. 2012, examination 30 Jun. 2012", "result": "improvement in the visual field in the upper left quadrant; also recorded: clear improvement"},
      {"measurement": "time to improvement after introduction of the treatment", "setting": "[1]; the three patients", "result": "within three months"}
    ]}
  ]
}
